Measurements from patent US20240024293A1, “NOMETHIAZOLES AS A TREATMENT FOR RETT SYNDROME” (REVIVO THERAPEUTICS, priority 2019, published 2024).
Structures can show the parent of a compound that is named as a salt.

What was measured:
Mecp2 female mice (HET) [1] = assay: Acoustic startle response in RETT mouse model; type: in vivo; conditions: HET mice at 8 weeks of age; all doses tested (1.35 or 13.5 mg/kg ip QD + 0.675 mg/ml in drinking water); FIG. 2
Method: (§1) Experiments employed wild type (WT) mice and Mecp2 female mice (HET) that were provided by The Jackson Laboratory, Bar Harbor, ME.
(§2) Breeding of the experimental mice were done at The Jackson Laboratories and were shipped at approximately 5 weeks of age. Dosing experiments were conducted at approximately 6 weeks of age.
(§3) Treatment Groups (N=20) were as follow: • WT—Vehicle • HET—Vehicle • HET—RIV-0561 (1.35 mg/kg; ip QD)+0.675 mg/ml of RIV-0561 in drinking water • HET—RIV-0561 (13.5 mg/kg; ip QD)+0.675 mg/ml of RIV-0561 in drinking water
(§4) NeuroCube® and Startle experiments were conducted when mice were at 8 and 12 weeks of age. All tests were conducted within 2 hours post IP dosing.
The acoustic startle measures an unconditioned reflex response to external auditory stimulation. Mice were placed in the startle enclosures and secured in the sound-attenuated startle chamber (Med Associates Inc., St Albans, VT) on top of a force transducer plate that measures the force of the movements made by the mouse for a 5 min habituation period of white noise (70 dB). Subsequent test sessions consisted of 10 blocks of eleven trials each. Within each block, stimuli of 70, 75, 80, 85, 90, 95, 100, 105, 110, 115, and 120 dB were presented in a random order with a variable inter-trial interval of mean 15 sec (10-20 sec). […] Responses were recorded for 150 ms from startle onset and were sampled every ms. […]

Mecp2 female mice (HET) [2] = assay: NeuroCube gait analysis in RETT mouse model; type: in vivo
Method: as §1, §2, §3, §4
NeuroCube® system is a proprietary gait analysis system. The platform employs computer vision to detect changes in gait geometry and gait dynamics in rodent models of neurological disorders, pain, and neuropathies. This platform is unique for gait testing for the following reasons: (1) it is completely automated and thus removes any bias or subjectivity; (2) the system captures both gait geometry and gait dynamics (stance, swing, propulsion, etc.); and (3) the sensitivity of the computer vision and bioinformatics allow the capture of symptoms of the disease model earlier and more accurately.
Mice are placed in the NeuroCube® for a 5-min test. The most dominant features that define the disease phenotype (symptom descriptors) are identified and ranked. Complex bioinformatics algorithms are employed to calculate the discrimination probability between WT and HET mice and can thus detect a test compound's ability to reverse the disease phenotype.

[3] = Gait features at 12 weeks, HET mice, dose not given

SMILES: Cc1ncsc1CCO[N+](=O)[O-] [RIV-5061, 2-(4-methylthiazol-5-yl)ethyl nitrate maleate]
- Startle response (Mecp2 female mice (HET) [1]): tendency to improve startle response
- % Recovery, Body Motion (Mecp2 female mice (HET) [2]; [3]): 19%
- % Recovery, Gait Dynamic and Geometry (Mecp2 female mice (HET) [2]; [3]): 53%
- % Recovery, Overall Gait (Mecp2 female mice (HET) [2]; [3]): 24%
- % Recovery, Paw Features (Mecp2 female mice (HET) [2]; [3]): 63%
- % Recovery, Paw Positioning (Mecp2 female mice (HET) [2]; [3]): 17%
- % Recovery, Rhythmicity (Mecp2 female mice (HET) [2]; [3]): 0%
- Improvement of important gait features (up to) (Mecp2 female mice (HET) [2]; RETT mice, after 12 weeks of treatment, particularly at the lower dose (1.35 mg/kg IP daily + 0.675 mg/ml in drinking water)): > 60%
